Experimental findings from PubChem BioAssay (NCI) are described below.

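Exposure lasted 48 hours, with cells grown in 96-well plates and compounds tested at five concentrations. Here, GI50 denotes the concentration required for 50% inhibition of growth. At the TGI there is no net growth.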 A value given as a limit tells only on which side of the number the result lay.

Among the test systems are SN12C renal; SF-295 CNS; RPMI-8226 leukemia; COLO 205 colon; HCT-116 colon; A549 NSCLC; ACHN renal; KM12 colon; DU-145 prostate; SK-MEL-2 melanoma.
Common to all, as to experiment: NCI tumour cell line growth inhibition, 48 h

With `COc1ccc(-c2ccc(/C=N/n3c(COc4ccc(Cl)c(C)c4)nn(CN4CCOCC4)c3=S)o2)c([N+](=O)[O-])c1`, the GI50 with SN12C renal is 21.3 µM; in the assay on SF-295 CNS, 18.6 µM; in the assay with RPMI-8226 leukemia, 12.5 µM; in the assay on COLO 205 colon, 39.8 µM; in the assay with HCT-116 colon it was 17.6 µM; in the assay with A549 NSCLC, 19.3 µM. In addition, the GI50 in the assay on ACHN renal is 39.1 µM; in the assay on KM12 colon it was 29.1 µM; in the assay on DU-145 prostate, 38 µM. The TGI with SN12C renal is 48.1 µM; with SF-295 CNS, 46.6 µM; in the assay with RPMI-8226 leukemia, 34.9 µM; with COLO 205 colon, greater than 100 µM; in the assay with HCT-116 colon, 34.3 µM; in the assay on A549 NSCLC, 96.8 µM. The TGI in the assay on ACHN renal, in the assay on KM12 colon and in the assay with DU-145 prostate was greater than 100 µM throughout.
In the case of `Oc1ccc(CCNc2nc3ccccc3c3[nH]c4ccccc4c23)cc1`, the GI50 with SN12C renal was 1.27 µM; with SF-295 CNS it was 1.38 µM; in the assay with HCT-116 colon it was 1.22 µM; in the assay on A549 NSCLC, 1.33 µM; in the assay with ACHN renal, 1.27 µM; with SK-MEL-2 melanoma, 1730 nM. In addition, the figures for the GI50 in the assay with KM12 colon and in the assay with DU-145 prostate were 1.2 µM and 1.45 µM, respectively. Further, the TGI is 2.62 µM with SN12C renal; 2.87 µM with SF-295 CNS; 2.89 µM in the assay with HCT-116 colon; 2.75 µM in the assay on A549 NSCLC; 2.52 µM in the assay with ACHN renal; 3.36 µM in the assay with SK-MEL-2 melanoma. Further, the TGI in the assay with KM12 colon is 2.98 µM; in the assay with DU-145 prostate it was 3.42 µM.
In the case of `O=NNc1nc(-c2ccccn2)nc2ccccc12`, the TGI is greater than 100 µM with SN12C renal; greater than 100 µM in the assay on SF-295 CNS; greater than 100 µM in the assay on COLO 205 colon; 16.5 µM in the assay with HCT-116 colon; greater than 100 µM in the assay on A549 NSCLC; 42.5 µM with ACHN renal. The TGI was 39.5 µM in the assay with SK-MEL-2 melanoma, greater than 100 µM in the assay with KM12 colon and greater than 100 µM in the assay on DU-145 prostate.
For the compound `CCOC(=O)/C(=C/c1ccc[nH]1)P(=O)(OCC)OCC`, the TGI with SN12C renal, with SF-295 CNS, in the assay on RPMI-8226 leukemia, in the assay with COLO 205 colon, in the assay on HCT-116 colon and in the assay on A549 NSCLC was greater than 100 µM in each case. Also, the TGI in the assay on ACHN renal, in the assay on SK-MEL-2 melanoma and with KM12 colon was greater than 100 µM each time.
For `COC(=O)C1=C(C)C(=O)C2(CCCCCC2C(=O)OC)C1` (configuration not stated), the TGI in the assay with SN12C renal, in the assay with SF-295 CNS, with RPMI-8226 leukemia, in the assay on COLO 205 colon, with HCT-116 colon and with A549 NSCLC was greater than 100 µM in each case. In addition, the TGI with ACHN renal, in the assay with SK-MEL-2 melanoma and in the assay on KM12 colon was greater than 100 µM throughout.
With `O=C(CO[N+](=O)[O-])OCC(=O)c1ccccc1`, the TGI with SN12C renal, in the assay with SF-295 CNS, in the assay with RPMI-8226 leukemia, with COLO 205 colon, in the assay with HCT-116 colon and in the assay on A549 NSCLC was greater than 100 µM each time. Also, the TGI in the assay on ACHN renal, with SK-MEL-2 melanoma and with KM12 colon was greater than 100 µM in each case.
`NC1=NN(c2ccccc2)C(=O)C1/C(=N\NC(=O)c1cc2ccccc2cc1O)C(=O)Nc1ccc(Cl)cc1` (configuration not stated): the TGI was greater than 100 µM in the assay on SN12C renal; greater than 100 µM in the assay on SF-295 CNS; 96.1 µM in the assay with RPMI-8226 leukemia; 49.7 µM with COLO 205 colon; greater than 100 µM with HCT-116 colon; greater than 100 µM with A549 NSCLC. For the same compound, the TGI in the assay on ACHN renal, in the assay on SK-MEL-2 melanoma and with KM12 colon was greater than 100 µM throughout.
In the case of `Cc1[nH]n(C(=O)c2ccc(Cl)cc2)c(=O)c1/C=C1\C(O)=CC(=O)c2ccccc21`, the TGI in the assay with SN12C renal, with SF-295 CNS, with RPMI-8226 leukemia, with COLO 205 colon, in the assay with HCT-116 colon and in the assay with A549 NSCLC was greater than 100 µM each time. Further, the TGI in the assay on ACHN renal, with SK-MEL-2 melanoma and in the assay with KM12 colon was greater than 100 µM in each case.
As for `CCNC(=O)O/N=C1/C=C2CC[C@@H]3C(CC[C@@]4(C)C3CC[C@@H]4OC(=O)NCC)[C@@]2(C)CC1` (some centres not stated), the TGI is 14.6 µM in the assay on SN12C renal; 7.03 µM in the assay with SF-295 CNS; 7.02 µM with RPMI-8226 leukemia; 7.87 µM in the assay with COLO 205 colon; 12.2 µM in the assay on HCT-116 colon; 14.2 µM with A549 NSCLC. Also, the results for the TGI with ACHN renal, in the assay with SK-MEL-2 melanoma and with KM12 colon were 11.6 µM, 5.1 µM and 9.58 µM, respectively.
As for `CN1OC(CO)CC12C1CC3CC(C1)CC2C3` (configuration not stated), the TGI with SN12C renal, in the assay with SF-295 CNS, with RPMI-8226 leukemia, in the assay on COLO 205 colon, with HCT-116 colon and in the assay with A549 NSCLC was greater than 100 µM throughout. In addition, the TGI with ACHN renal, in the assay with SK-MEL-2 melanoma and in the assay with KM12 colon was greater than 100 µM throughout.
On to `CCCNc1ncnc2c1cnn2C`, for which the TGI in the assay with SN12C renal, in the assay with SF-295 CNS, in the assay on RPMI-8226 leukemia, in the assay on COLO 205 colon, with HCT-116 colon and in the assay on A549 NSCLC was greater than 100 µM in each case. The TGI with ACHN renal, in the assay with SK-MEL-2 melanoma and with KM12 colon was greater than 100 µM throughout.
As for `Cn1ncc2c(c1=O)Nc1ccccc1S2(=O)=O`, the TGI is greater than 100 µM in the assay on SN12C renal; greater than 100 µM in the assay on SF-295 CNS; 97.6 µM in the assay on RPMI-8226 leukemia; greater than 100 µM in the assay on COLO 205 colon; greater than 100 µM in the assay with HCT-116 colon; greater than 100 µM in the assay with A549 NSCLC. In addition, the TGI in the assay with ACHN renal, in the assay on SK-MEL-2 melanoma and in the assay with KM12 colon was greater than 100 µM each time.
Turning to `O=C(O)C12C3C4C1C1C2C3C41I` (configuration not stated), the TGI with SN12C renal, in the assay on SF-295 CNS, with RPMI-8226 leukemia, in the assay on COLO 205 colon, in the assay on HCT-116 colon and in the assay with A549 NSCLC was greater than 100 µM throughout. The TGI with ACHN renal, in the assay with SK-MEL-2 melanoma and in the assay on KM12 colon was greater than 100 µM in each case.
Take `NC1CC(n2ccc(=O)[nH]c2=O)OC1C(O)CO` (configuration not stated): the TGI in the assay with SN12C renal, with SF-295 CNS, in the assay on RPMI-8226 leukemia, in the assay on COLO 205 colon, in the assay on HCT-116 colon and in the assay on A549 NSCLC was greater than 100 µM throughout. The TGI with ACHN renal, in the assay on SK-MEL-2 melanoma and in the assay on KM12 colon was greater than 100 µM throughout.
